According to ChEMBL document CHEMBL4507287, “Data for DCP probe MRL-650” (2021):

Tests used:
[1] = target: MAP kinase-activated protein kinase 2 (Homo sapiens) (UniProt P49137); settings: Compound concentration 1000.0 nM
Cannabinoid receptor 2 = Cannabinoid receptor 2 (Homo sapiens, UniProt P34972); experiment: Radioligand Binding Assay (CNR2)
[2] = target: Alpha-2A adrenergic receptor (Homo sapiens) (UniProt P08913); settings: Compound concentration 10.0 uM
[3] = target: Serine/threonine-protein kinase Nek9 (Homo sapiens) (UniProt Q8TD19); settings: Compound concentration 1000.0 nM
[4] = target: Calcium/calmodulin-dependent protein kinase type II subunit gamma (Homo sapiens) (UniProt Q13555); settings: Compound concentration 1000.0 nM
[5] = target: Cyclin-dependent kinase 19 (Homo sapiens) (UniProt Q9BWU1); settings: Compound concentration 1000.0 nM
[6] = target: Serine/threonine-protein kinase PLK4 (Homo sapiens) (UniProt O00444); settings: Compound concentration 1000.0 nM
[7] = test system: Tyrosine-protein kinase ABL1 (Homo sapiens), P00519 [F317L]; settings: Compound concentration 1000.0 nM
[8] = test system: Receptor-type tyrosine-protein kinase FLT3 (Homo sapiens), P36888 [K663Q]; settings: Compound concentration 1000.0 nM
[9] = target: Calcium/calmodulin-dependent protein kinase type II subunit beta (Homo sapiens) (UniProt Q13554); settings: Compound concentration 1000.0 nM
[10] = target: Serine/threonine-protein kinase pim-3 (Homo sapiens) (UniProt Q86V86); settings: Compound concentration 1000.0 nM
[11] = target: Serine/threonine-protein kinase PknB (Mycobacterium tuberculosis) (UniProt P9WI81); settings: Compound concentration 1000.0 nM
[12] = target: Histamine H1 receptor (Homo sapiens) (UniProt P35367); settings: Compound concentration 10.0 uM
[13] = target: Activin receptor type-1-like (Homo sapiens) (UniProt P37023); settings: Compound concentration 1000.0 nM
[14] = target: RAC-beta serine/threonine-protein kinase (Homo sapiens) (UniProt P31751); settings: Compound concentration 1000.0 nM
[15] = target: Delta-type opioid receptor (Homo sapiens, UniProt P41143); settings: Compound concentration 10.0 uM
[16] = target: Histamine H2 receptor (Homo sapiens) (UniProt P25021); settings: Compound concentration 10.0 uM
[17] = target: Inhibitor of nuclear factor kappa-B kinase subunit beta (Homo sapiens) (UniProt O14920); settings: Compound concentration 1000.0 nM
[18] = target: Citron Rho-interacting kinase (Homo sapiens) (UniProt O14578); settings: Compound concentration 1000.0 nM
[19] = target: cGMP-dependent protein kinase 2 (Homo sapiens) (UniProt Q13237); settings: Compound concentration 1000.0 nM
[20] = test system: Fibroblast growth factor receptor 3 (Homo sapiens), P22607 [G697C]; settings: Compound concentration 1000.0 nM
[21] = target: STE20/SPS1-related proline-alanine-rich protein kinase (Homo sapiens) (UniProt Q9UEW8); settings: Compound concentration 1000.0 nM
[22] = target: Tyrosine-protein kinase JAK3 (Homo sapiens) (UniProt P52333); settings: Compound concentration 1000.0 nM
[23] = target: Receptor-type tyrosine-protein kinase FLT3 (Homo sapiens) (UniProt P36888); settings: Compound concentration 1000.0 nM
[24] = target: Homeodomain-interacting protein kinase 3 (Homo sapiens) (UniProt Q9H422); settings: Compound concentration 1000.0 nM
[25] = target: D(3) dopamine receptor (Homo sapiens) (UniProt P35462); settings: Compound concentration 10.0 uM
[26] = target: Protein kinase C iota type (Homo sapiens) (UniProt P41743); settings: Compound concentration 1000.0 nM
[27] = target: Mitogen-activated protein kinase 13 (Homo sapiens) (UniProt O15264); settings: Compound concentration 1000.0 nM
[28] = target: Mitogen-activated protein kinase kinase kinase kinase 1 (Homo sapiens) (UniProt Q92918); settings: Compound concentration 1000.0 nM
[29] = target: Mitogen-activated protein kinase 6 (Homo sapiens) (UniProt Q16659); settings: Compound concentration 1000.0 nM
[30] = target: Tyrosine-protein kinase Lck (Homo sapiens) (UniProt P06239); settings: Compound concentration 1000.0 nM
[31] = target: Leucine-rich repeat serine/threonine-protein kinase 2 (Homo sapiens) (UniProt Q5S007); settings: Compound concentration 1000.0 nM
[32] = target: Tyrosine-protein kinase TXK (Homo sapiens) (UniProt P42681); settings: Compound concentration 1000.0 nM
[33] = test system: Phosphatidylinositol 4,5-bisphosphate 3-kinase catalytic subunit alpha isoform (Homo sapiens), P42336 [Q546K]; settings: Compound concentration 1000.0 nM
[34] = target: Casein kinase II subunit alpha (Homo sapiens) (UniProt P68400); settings: Compound concentration 1000.0 nM
[35] = target: Wee1-like protein kinase 2 (Homo sapiens) (UniProt P0C1S8); settings: Compound concentration 1000.0 nM
[36] = target: Proto-oncogene tyrosine-protein kinase ROS (Homo sapiens) (UniProt P08922); settings: Compound concentration 1000.0 nM
[37] = test system: Proto-oncogene tyrosine-protein kinase receptor Ret (Homo sapiens), P07949 [V804L]; settings: Compound concentration 1000.0 nM
[38] = target: Alpha-1B adrenergic receptor (Homo sapiens) (UniProt P35368); settings: Compound concentration 10.0 uM
[39] = target: AP2-associated protein kinase 1 (Homo sapiens) (UniProt Q2M2I8); settings: Compound concentration 1000.0 nM
[40] = test system: Serine/threonine-protein kinase B-raf (Homo sapiens), P15056 [V600E]; settings: Compound concentration 1000.0 nM
[41] = test system: Receptor-type tyrosine-protein kinase FLT3 (Homo sapiens), P36888 [R834Q]; settings: Compound concentration 1000.0 nM
[42] = test system: Tyrosine-protein kinase ABL1 (Homo sapiens), P00519 [M351T]; settings: Compound concentration 1000.0 nM
[43] = target: Macrophage colony-stimulating factor 1 receptor (Homo sapiens) (UniProt P07333); settings: Compound concentration 1000.0 nM
[44] = target: D(1A) dopamine receptor (Homo sapiens) (UniProt P21728); settings: Compound concentration 10.0 uM

Chain of Activin receptor type-1-like (Homo sapiens) (P37023 whole entry): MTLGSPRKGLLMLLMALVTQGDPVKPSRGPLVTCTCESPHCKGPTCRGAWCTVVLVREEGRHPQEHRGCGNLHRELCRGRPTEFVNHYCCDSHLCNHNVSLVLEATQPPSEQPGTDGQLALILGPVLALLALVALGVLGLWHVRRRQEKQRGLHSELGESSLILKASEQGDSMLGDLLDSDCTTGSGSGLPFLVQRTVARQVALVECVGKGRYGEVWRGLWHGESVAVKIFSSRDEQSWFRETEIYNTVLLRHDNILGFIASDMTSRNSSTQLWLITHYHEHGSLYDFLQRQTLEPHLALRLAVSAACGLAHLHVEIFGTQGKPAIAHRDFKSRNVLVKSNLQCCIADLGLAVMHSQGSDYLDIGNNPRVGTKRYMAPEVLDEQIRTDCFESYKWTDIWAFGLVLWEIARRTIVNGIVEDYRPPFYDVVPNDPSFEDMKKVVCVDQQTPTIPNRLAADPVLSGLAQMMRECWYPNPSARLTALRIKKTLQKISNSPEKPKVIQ
Chain of Serine/threonine-protein kinase B-raf (Homo sapiens), P15056 [V600E] (P15056 whole entry V600E): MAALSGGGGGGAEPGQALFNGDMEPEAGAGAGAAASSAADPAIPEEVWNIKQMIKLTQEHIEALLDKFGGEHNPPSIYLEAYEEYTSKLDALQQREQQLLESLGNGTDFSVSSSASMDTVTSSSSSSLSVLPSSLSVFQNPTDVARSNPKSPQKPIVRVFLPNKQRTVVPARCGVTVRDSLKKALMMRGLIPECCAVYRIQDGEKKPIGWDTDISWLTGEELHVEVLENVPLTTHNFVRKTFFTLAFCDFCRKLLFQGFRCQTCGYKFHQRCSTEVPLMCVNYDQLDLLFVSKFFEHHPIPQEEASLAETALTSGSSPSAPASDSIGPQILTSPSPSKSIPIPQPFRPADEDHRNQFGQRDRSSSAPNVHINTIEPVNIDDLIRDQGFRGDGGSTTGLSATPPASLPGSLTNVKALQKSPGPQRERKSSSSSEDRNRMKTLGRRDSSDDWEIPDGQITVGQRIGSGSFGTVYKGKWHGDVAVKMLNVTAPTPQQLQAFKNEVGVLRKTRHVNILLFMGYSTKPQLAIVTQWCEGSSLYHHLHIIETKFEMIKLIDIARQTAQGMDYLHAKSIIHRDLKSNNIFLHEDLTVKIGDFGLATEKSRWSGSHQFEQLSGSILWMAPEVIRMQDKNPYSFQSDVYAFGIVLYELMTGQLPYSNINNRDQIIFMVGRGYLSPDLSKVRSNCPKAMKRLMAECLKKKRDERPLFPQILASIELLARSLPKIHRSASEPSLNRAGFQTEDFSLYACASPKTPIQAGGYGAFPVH
Chain of Calcium/calmodulin-dependent protein kinase type II subunit beta (Homo sapiens) (Q13554 whole entry): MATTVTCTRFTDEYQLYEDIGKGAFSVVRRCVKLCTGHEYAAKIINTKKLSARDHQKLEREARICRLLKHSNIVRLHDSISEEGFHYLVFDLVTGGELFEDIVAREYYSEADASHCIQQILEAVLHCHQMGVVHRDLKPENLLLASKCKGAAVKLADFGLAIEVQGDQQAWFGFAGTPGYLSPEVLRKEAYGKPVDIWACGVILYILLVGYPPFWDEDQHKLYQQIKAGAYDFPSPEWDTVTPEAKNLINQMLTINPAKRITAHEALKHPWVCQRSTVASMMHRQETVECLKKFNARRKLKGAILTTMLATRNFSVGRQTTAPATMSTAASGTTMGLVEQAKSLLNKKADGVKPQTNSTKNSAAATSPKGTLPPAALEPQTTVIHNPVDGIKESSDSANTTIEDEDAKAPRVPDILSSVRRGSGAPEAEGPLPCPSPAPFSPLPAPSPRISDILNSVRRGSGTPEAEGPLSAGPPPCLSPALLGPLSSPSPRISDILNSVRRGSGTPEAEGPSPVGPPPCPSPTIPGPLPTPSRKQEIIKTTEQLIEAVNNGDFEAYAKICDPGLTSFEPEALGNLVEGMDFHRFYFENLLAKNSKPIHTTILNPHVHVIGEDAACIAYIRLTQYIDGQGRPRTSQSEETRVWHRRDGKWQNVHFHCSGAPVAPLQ
Chain of Histamine H1 receptor (Homo sapiens) (P35367 whole entry): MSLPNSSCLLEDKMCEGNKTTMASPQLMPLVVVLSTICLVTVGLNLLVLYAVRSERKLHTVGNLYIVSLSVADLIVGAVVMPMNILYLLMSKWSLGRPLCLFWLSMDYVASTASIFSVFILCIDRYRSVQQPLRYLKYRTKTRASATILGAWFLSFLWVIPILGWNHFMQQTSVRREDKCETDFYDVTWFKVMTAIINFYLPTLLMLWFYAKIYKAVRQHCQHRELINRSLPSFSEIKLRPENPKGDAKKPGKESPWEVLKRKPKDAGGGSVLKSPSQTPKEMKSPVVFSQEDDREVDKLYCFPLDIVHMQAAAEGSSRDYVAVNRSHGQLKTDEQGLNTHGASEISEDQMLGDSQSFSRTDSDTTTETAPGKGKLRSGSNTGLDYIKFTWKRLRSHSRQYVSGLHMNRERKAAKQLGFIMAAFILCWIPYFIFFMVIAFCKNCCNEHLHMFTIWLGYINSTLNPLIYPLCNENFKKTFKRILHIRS
Chain of Homeodomain-interacting protein kinase 3 (Homo sapiens) (Q9H422 whole entry, looked up): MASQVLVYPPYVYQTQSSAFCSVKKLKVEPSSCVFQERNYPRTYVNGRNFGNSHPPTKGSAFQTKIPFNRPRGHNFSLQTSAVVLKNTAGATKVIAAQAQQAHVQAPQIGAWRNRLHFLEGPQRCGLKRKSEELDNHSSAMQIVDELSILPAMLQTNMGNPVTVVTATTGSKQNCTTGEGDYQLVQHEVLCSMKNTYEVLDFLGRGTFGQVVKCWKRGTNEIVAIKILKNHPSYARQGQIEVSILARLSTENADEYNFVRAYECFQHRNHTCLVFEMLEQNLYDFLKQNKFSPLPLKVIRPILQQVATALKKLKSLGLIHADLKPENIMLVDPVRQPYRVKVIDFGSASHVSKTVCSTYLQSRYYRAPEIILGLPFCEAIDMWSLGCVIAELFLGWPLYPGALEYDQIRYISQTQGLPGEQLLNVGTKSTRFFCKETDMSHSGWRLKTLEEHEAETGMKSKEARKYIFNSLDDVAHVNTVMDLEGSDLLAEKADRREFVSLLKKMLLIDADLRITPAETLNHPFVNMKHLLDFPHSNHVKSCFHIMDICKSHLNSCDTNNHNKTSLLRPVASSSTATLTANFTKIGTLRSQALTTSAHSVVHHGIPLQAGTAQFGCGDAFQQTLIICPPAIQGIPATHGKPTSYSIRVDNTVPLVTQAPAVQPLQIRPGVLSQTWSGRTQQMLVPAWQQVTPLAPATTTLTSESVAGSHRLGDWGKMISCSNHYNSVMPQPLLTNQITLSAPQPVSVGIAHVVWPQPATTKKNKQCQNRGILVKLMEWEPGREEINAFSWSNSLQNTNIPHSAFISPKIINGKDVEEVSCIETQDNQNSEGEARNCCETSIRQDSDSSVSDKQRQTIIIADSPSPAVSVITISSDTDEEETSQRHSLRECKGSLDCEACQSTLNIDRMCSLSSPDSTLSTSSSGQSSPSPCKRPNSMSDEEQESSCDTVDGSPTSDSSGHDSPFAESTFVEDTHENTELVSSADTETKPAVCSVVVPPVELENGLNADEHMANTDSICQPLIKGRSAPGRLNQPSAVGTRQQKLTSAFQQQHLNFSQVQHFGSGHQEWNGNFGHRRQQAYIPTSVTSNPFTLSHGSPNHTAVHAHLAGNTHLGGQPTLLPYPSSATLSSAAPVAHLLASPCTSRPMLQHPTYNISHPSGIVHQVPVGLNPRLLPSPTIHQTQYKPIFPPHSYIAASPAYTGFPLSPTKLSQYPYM
Chain of AP2-associated protein kinase 1 (Homo sapiens) (Q2M2I8 whole entry, looked up): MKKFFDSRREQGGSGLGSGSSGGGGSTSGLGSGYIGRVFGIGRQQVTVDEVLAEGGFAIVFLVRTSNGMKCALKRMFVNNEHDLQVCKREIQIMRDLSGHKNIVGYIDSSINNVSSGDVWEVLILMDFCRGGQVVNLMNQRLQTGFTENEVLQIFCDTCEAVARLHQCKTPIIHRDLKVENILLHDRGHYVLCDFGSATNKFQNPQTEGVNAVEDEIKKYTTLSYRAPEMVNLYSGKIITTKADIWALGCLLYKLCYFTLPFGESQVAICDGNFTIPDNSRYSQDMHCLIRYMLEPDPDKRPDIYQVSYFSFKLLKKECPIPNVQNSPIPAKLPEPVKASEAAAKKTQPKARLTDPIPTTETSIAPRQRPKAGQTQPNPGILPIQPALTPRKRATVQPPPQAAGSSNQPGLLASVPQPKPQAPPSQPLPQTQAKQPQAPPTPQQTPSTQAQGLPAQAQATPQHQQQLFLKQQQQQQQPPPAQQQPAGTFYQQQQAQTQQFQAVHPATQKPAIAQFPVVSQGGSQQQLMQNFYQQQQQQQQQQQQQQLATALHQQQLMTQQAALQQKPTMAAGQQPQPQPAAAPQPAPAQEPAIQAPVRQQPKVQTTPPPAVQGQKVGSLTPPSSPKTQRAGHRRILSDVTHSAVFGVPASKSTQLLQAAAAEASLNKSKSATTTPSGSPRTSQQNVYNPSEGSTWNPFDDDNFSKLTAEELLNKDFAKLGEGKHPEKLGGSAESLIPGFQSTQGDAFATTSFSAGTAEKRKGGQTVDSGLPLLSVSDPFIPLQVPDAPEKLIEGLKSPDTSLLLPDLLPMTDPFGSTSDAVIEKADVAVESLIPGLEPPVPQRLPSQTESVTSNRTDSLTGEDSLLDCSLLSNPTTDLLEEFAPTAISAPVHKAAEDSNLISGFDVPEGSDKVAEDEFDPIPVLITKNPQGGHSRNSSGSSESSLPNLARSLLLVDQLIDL

Structure (SMILES): CC(=O)Nc1c(C(C)=O)c(=O)n(C)c2nc(-c3ccc(Cl)cc3Cl)c(-c3ccc(Cl)cc3)cc12 [NAPHTHYRIDINONE]
- residual activity [1]: 100%
- IC50 (Cannabinoid receptor 2): 4.63 µM (not active)
- inhibition [2]: 1.31%
- residual activity [3]: 100%
- residual activity [4]: 100%
- residual activity [5]: 100%
- residual activity [6]: 100%
- residual activity [7]: 100%
- residual activity [8]: 100%
- residual activity [9]: 100%
- residual activity [10]: 100%
- residual activity [11]: 100%
- inhibition [12]: -1.39%
- residual activity [13]: 100%
- residual activity [14]: 100%
- inhibition [15]: -2.35%
- inhibition [16]: 6.71%
- residual activity [17]: 100%
- residual activity [18]: 100%
- residual activity [19]: 100%
- residual activity [20]: 100%
- residual activity [21]: 100%
- residual activity [22]: 100%
- residual activity [23]: 100%
- residual activity [24]: 97%
- inhibition [25]: 14.3%
- residual activity [26]: 100%
- residual activity [27]: 100%
- residual activity [28]: 91%
- residual activity [29]: 100%
- residual activity [30]: 100%
- residual activity [31]: 100%
- residual activity [32]: 100%
- residual activity [33]: 100%
- residual activity [34]: 100%
- residual activity [35]: 100%
- residual activity [36]: 99%
- residual activity [37]: 100%
- inhibition [38]: 17.1%
- residual activity [39]: 100%
- residual activity [40]: 100%
- residual activity [41]: 100%
- residual activity [42]: 100%
- residual activity [43]: 100%
- inhibition [44]: 2.02%

Structure (SMILES): CC(=O)c1c(NS(C)(=O)=O)c2cc(-c3ccc(Cl)cc3)c(-c3ccc(Cl)cc3Cl)nc2n(C)c1=O [MRL-CB1-NC]
- residual activity [1]: 80%
- Inverse agonism (Cannabinoid receptor 2): 38.3%
- inhibition [2]: 19.8%
- residual activity [3]: 100%
- residual activity [4]: 100%
- residual activity [5]: 100%
- residual activity [6]: 100%
- residual activity [7]: 75%
- residual activity [8]: 100%
- residual activity [9]: 100%
- residual activity [10]: 100%
- residual activity [11]: 83%
- inhibition [12]: 18.8%
- residual activity [13]: 100%
- residual activity [14]: 100%
- inhibition [15]: 73.6%
- inhibition [16]: 13.8%
- residual activity [17]: 98%
- residual activity [18]: 96%
- residual activity [19]: 100%
- residual activity [20]: 100%
- residual activity [21]: 92%
- residual activity [22]: 100%
- residual activity [23]: 92%
- residual activity [24]: 88%
- inhibition [25]: 5.91%
- residual activity [26]: 100%
- residual activity [27]: 97%
- residual activity [28]: 100%
- residual activity [29]: 100%
- residual activity [30]: 100%
- residual activity [31]: 65%
- residual activity [32]: 100%
- residual activity [33]: 86%
- residual activity [34]: 92%
- residual activity [35]: 100%
- residual activity [36]: 100%
- residual activity [37]: 100%
- inhibition [38]: 47.2%
- residual activity [39]: 100%
- residual activity [40]: 88%
- residual activity [41]: 100%
- residual activity [42]: 87%
- residual activity [43]: 100%
- inhibition [44]: 14.2%
